Experimental data from patent US12628833B2, “Composition and method for improving plant growth” (ALGAIA, priority 2019, dated 2026).

What was measured:
Type in all cases: cell-based
Bacillus megaterium = test: Growth in liquid medium (96-well microplate, absorbance 600 nm), tested solution as only carbon source
Procedure: (§1) The effect of the addition of algae extracts to a […] culture medium on the growth kinetics of seven bacterial species with a recognized PGPR (Plant-Growth Promoting Rhizobacteria) effect was determined: Bacillus megaterium, Bacillus subtilis, Rhizobium leguminosarum, Azotobacter vinelandii, Pseudomonas fluorescens, Pseudomonas fulva, Arthrobacter agilis.
(§2) Nutrient broth NB culture medium (Sigma-Aldrich) at 25 g/L was used for the multiplication of the following bacteria: Bacillus subtilis, Bacillus megaterium, Arthrobacter agilis, Pseudomonas fluorescens, Pseudomonas fulva. YMA medium (Sigma-Aldrich) without agar was used for Rhizobium leguminosarum bacteria.
(§3) Tests in sterile 96-well round-bottom microplates were performed. An absorbance of 0.06 to 0.08 (600 nm) for inoculation of the bacteria into the microplate was used in these tests.
(§4) Microplate plating included a blank, a positive control, a negative control and the samples.
(§5) The positive control was composed of bacteria and optimum culture medium (nutrient broth NB), in order to verify good multiplication of the bacteria in the microplates.
(§6) The negative control consisted of sterilized distilled water devoid of carbonaceous elements with 20 μl of bacteria inoculated with their NB culture medium, in order to determine how bacterial growth behaved in a medium depleted of any carbonaceous elements.
(§7) The blank was distilled water without bacteria in order to determine possible variations in absorbance and potential bacterial contamination.
(§8) The different algal extract tests consisted of sterile distilled water with the tested solutions at different concentrations (66 μl) to which 20 μl of bacteria were added.
(§9) The different seaweed extracts tested are: commercial mannitol, commercial laminarans, composition according to the invention (laminarans extract).

Pseudomonas fluorescens = test: as above
Procedure: as §1, §2, §3, §4, §5, §6, §7, §8, §9

Pseudomonas fulva = test: as above
Procedure: as §1, §2, §3, §4, §5, §6, §7, §8, §9

[1] = test system: bacterial species with a recognized PGPR (Plant-Growth Promoting Rhizobacteria) effect; test: Growth in liquid medium (96-well microplate), bacteria not specified
Procedure: as §1, §2, §3, §4, §5, §6, §7, §8, §9
FIGS. 1 to 3 show a growth of bacterial strains in liquid medium using only the generated extract as carbon source for different bacteria.

Compound | interaction between bacteria and compound (growth curve versus negative and positive control) (Bacillus megaterium; concentration 0.3%) | interaction between bacteria and compound (growth curve versus negative and positive control) (Bacillus megaterium; concentration 0.5%) | interaction between bacteria and compound (growth curve versus negative and positive control) (Bacillus megaterium; concentration 1%) | interaction between bacteria and compound (growth curve versus negative and positive control) (Pseudomonas fluorescens; concentration 0.3%) | interaction between bacteria and compound (growth curve versus negative and positive control) (Pseudomonas fluorescens; concentration 0.5%) | interaction between bacteria and compound (growth curve versus negative and positive control) (Pseudomonas fluorescens; concentration 1%) | interaction between bacteria and compound (growth curve versus negative and positive control) (Pseudomonas fulva; concentration 0.3%) | interaction between bacteria and compound (growth curve versus negative and positive control) (Pseudomonas fulva; concentration 0.5%) | interaction between bacteria and compound (growth curve versus negative and positive control) (Pseudomonas fulva; concentration 1%) | concentration from which it can be used as a carbon source (increase in bacterial growth) ([1]; used alone) | dependence of the effect on bacterial growth on concentration ([1]; used alone as carbon source) | effect on bacterial growth ([1]; concentration not given) | concentration of maximum effect on bacterial growth ([1]; sole source of carbon) | effect on bacterial growth ([1]; sole source of carbon, higher concentrations (2%)) | effect on bacterial growth ([1]; sole source of carbon, lower concentrations (0.1%)) | effect on bacterial growth ([1]; concentrations in the range of <0.01%) | effect on bacterial growth ([1]; especially when the concentration was above 0.1%)
laminaran [standard laminaran] | absence of interaction between bacteria and compounds | absence of interaction between bacteria and compounds | positive interaction between bacteria and compounds | absence of interaction between bacteria and compounds | absence of interaction between bacteria and compounds | positive interaction between bacteria and compounds | absence of interaction between bacteria and compounds | absence of interaction between bacteria and compounds | positive interaction between bacteria and compounds | about 1% | the higher the concentration, the greater the effect |  |  |  |  |  | 
Alginates |  |  |  |  |  |  |  |  |  |  |  | little effect |  |  |  |  | 
OC[C@@H](O)[C@@H](O)[C@H](O)[C@H](O)CO [purified mannitol, mannitol] | absence of interaction between bacteria and compounds | absence of interaction between bacteria and compounds | positive interaction between bacteria and compounds | absence of interaction between bacteria and compounds | absence of interaction between bacteria and compounds | positive interaction between bacteria and compounds | absence of interaction between bacteria and compounds | absence of interaction between bacteria and compounds | positive interaction between bacteria and compounds |  |  |  | 1% | very little or no effect | very little or no effect |  | 
Fucoidans |  |  |  |  |  |  |  |  |  |  |  |  |  |  |  | a small improvement in growth | did not seem to show any real positive effect
